Measurements from patent US8778302B2, “Procaspase 8-mediated disease targeting” (The University of British Columbia, priority 2007, dated 2014).
In brackets after ≈: the same amount, converted by molar mass.

How the values were obtained:
[1] = in vitro cytotoxicity of ABX and Taxol; format: cell-based; details: Homo sapiens, A-431; A431 line
Procaspase 8 = target: T1, Procaspase 8 (Homo sapiens, UniProt Q14790); assay: immunoprecipitation of Procaspase 8 with truncated SPARC polypeptides; format: binding; details: truncated SPARC polypeptide near amino terminus (MIP/NT), FIG. 8
T1 construct: endogenous in cells; host or cells: MIP101-derived cells expressing SPARC fragments (MIP/NT, MIP/FS, MIP/EC)
T1 sequence (Q14790 whole entry, the tested form may be a part): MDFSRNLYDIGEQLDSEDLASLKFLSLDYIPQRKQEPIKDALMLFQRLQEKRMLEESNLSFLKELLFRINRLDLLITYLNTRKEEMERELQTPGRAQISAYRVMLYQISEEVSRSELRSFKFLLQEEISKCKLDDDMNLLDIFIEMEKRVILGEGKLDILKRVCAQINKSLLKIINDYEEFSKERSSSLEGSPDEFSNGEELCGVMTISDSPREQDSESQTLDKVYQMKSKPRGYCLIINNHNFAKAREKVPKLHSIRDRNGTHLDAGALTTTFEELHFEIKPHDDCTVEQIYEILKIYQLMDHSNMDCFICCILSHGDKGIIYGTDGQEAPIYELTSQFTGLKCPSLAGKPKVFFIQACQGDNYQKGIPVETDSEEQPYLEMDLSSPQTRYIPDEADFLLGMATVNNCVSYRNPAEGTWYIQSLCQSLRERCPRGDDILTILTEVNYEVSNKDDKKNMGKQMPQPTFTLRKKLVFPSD
Procedure: Immunopreciptation was performed with anti-histidine tag antibody (IP: His) (See FIG. 8A) or an anti-Caspase 8 antibody (IP: Capsaase 8) (See FIG. 8B) in the presence of Procaspase 8 and truncated SPARC polypeptides comprising a sequence near the SPARC amino terminus (SEQ ID NO: 20) (MIP/NT), a sequence from the SPARC follistatin-like domain (SEQ ID NO: 22) (MIP/FS), a sequence from the SPARC extracellular domain (SEQ ID NO: 24) (MIP/EC) or a control antibody (IgG).

MIP/SP cells [2] = assay: caspase 8/9 inhibition, cell viability by MTS, MIP/SP; format: cell-based, human
Procedure: (§1) caspase 8/9 Inhibition: Cells were seeded (96-well plates), and incubated 24 hours later (˜60% confluence) with 10-50 μM of Caspase 8-like inhibitor (z-IETD-fmk, Sigma) or Caspase 9-like inhibitor (z-LEHDfink•TFA, Sigma) for 30 minutes, followed by incubation with 1000 μM 5-FU for an additional 24 hours. Cell viability was assessed by MTS assay.

MIP/ZEO cells [3] = assay: caspase 8/9 inhibition, cell viability by MTS, MIP/ZEO; format: cell-based, human
Procedure: as §1

[4] = test system: Caspase 3/7 activity in MIP/ZEO cells; assay: Caspase 3/7 assay (Caspase-Glo), MIP/ZEO; format: cell-based, human
Procedure: (§2) Cell viability was assessed by MTS assay (Promega) at 490 nm. […] Total cell lysates were isolated and 20 μg of total protein/sample were used in Caspase-Glo 3/7 Assay (Promega), using a 1:1 dilution of Caspase-Glo 3/7 Substrate. Relative luminescence units (RLU) was quantified using a Viktor2 1420 Multilabel counter (Perkin Elmer).

MIP/ZEO cells [5] = assay: Cell viability (MTS) assay after Caspase 8 siRNA, MIP/ZEO; format: cell-based, human; details: Caspase 8 knock-down
Procedure: (§3) Cell Lines: MIP101 and HCT116 (ATCC) human CRC cells were maintained in DMEM media supplemented with 1% penicillin-streptomycin, 1% kanamycin (Invitrogen) and 10% newborn calf serum at 37° C. and 5% CO2. […] MIP101 transfected with empty vector (VIIP/ZEO) and MIP101 cells stably transfected with SPARC (MIP/SP), were also supplemented with 0.01% zeocin (Invitrogen).
(§4) Cell viability was assessed by MTS assay (Promega) at 490 nm. Caspase 3/7 Assay: Cells were transiently transfected with 40 nM of Caspase 8 siRNA for 48 hours, and incubated with 1000 μM 5-FU for another 48 hours. Total cell lysates were isolated and 20 μg of total protein/sample were used in Caspase-Glo 3/7 Assay (Promega), using a 1:1 dilution of Caspase-Glo 3/7 Substrate. Relative luminescence units (RLU) was quantified using a Viktor2 1420 Multilabel counter (Perkin Elmer).

MIP/ZEO cells [6] = assay: TUNEL assay, MIP/ZEO; format: cell-based, human; details: 5-FU
Procedure: (§5) TUNEL Assay: Cells were seeded (24-well plates) to achieve ˜60% confluence 24 hours later for transient transfection with Caspase 8 siRNA. 36 hours later, cells were incubated with 1000 μM 5-FU for 36 hours, harvested (suspension and attached cells) and fixed onto glass slides with Shandon cytospin at 2000 rpm for 10 minutes and stained as per manufacturer's instructions (Promega). The number of TUNEL-positive cells was counted and averaged from four different fields (n=4 independent experiments, with slides read independently by two individuals in a blinded fashion).

[7] = test system: Caspase 3/7 activity in MIP/SP cells; assay: Caspase 3/7 assay (Caspase-Glo), MIP/SP; format: cell-based, human
Procedure: as §2

[8] = test system: Caspase 8 in MIP/SP tumors; assay: Caspase 8 protein activity in MIP/SP tumor xenografts; format: in vivo, nude mice; details: MIP/SP tumors from animals treated with 5-FU (FIG. 6C)
Procedure: In addition, tumor xenografts of MIP/ZEO and MIP/SP cells from nude mice treated with either 5-FU (three consecutive days) or saline, were collected after the 1st cycle of treatment and homogenized (Kinematica, POLYTRON-Aggregate). Lysates were then prepared for immunoblot or RT-PCR. […] Similarly, cells seeded on coverslips at 150,000 cells/well in a E-well plate, treated 24 hours later with 1000 μM 5-FU for 2 hours were then fixed in 2% paraformaldehyde and processed for immunofluorescence staining as previously described [27]. In both cases, α-caspase 8 (1:50, paraffin-embedded tissues; 1:100, cells on coverslips) antibody was used and incubated overnight at 4° C., and counterstained with DAPI. Zeiss Axioplan 2 Fluorescence microscope was used for image capture.

[9] = test system: Caspase 3 activation in MIP/5FU cells; assay: Caspase 3/7 assay (Caspase-Glo), MIP/5FU; format: cell-based, human; details: Caspase 8 siRNA or scramble control (FIG. 4A)
Procedure: as §4

MIP/5FU cells [10] = assay: Cell viability (MTS) assay after Caspase 8 siRNA, MIP/5FU; format: cell-based, human; details: with Caspase 8 knock-down (FIG. 3B)
Procedure: as §3, §4

MIP/SP cells [11] = assay: TUNEL assay, MIP/SP; format: cell-based, human
Procedure: as §5

HCT116 cells = assay: Cell viability (MTS) assay after Caspase 8 siRNA, HCT116; format: cell-based, human; details: HCT116, Caspase 8 siRNA+5-FU
Procedure: as §3, §4

MIP/SP cells [12] = assay: Cell viability (MTS) assay after Caspase 8 siRNA, MIP/SP; format: cell-based, human; details: Caspase 8 gene silencing, after 5-FU treatment (0-1200 μM) (FIG. 3A)
MIP/5FU cells [13] = assay: TUNEL assay, MIP/5FU; format: cell-based, human; details: 5-FU treatment (FIG. 4B, C)
Procedure: as §5

[14] = test system: Caspase 8 expression in MIP 101 tumor xenografts; assay: Caspase 8 expression in MIP 101 mouse tumor xenografts; format: in vivo, NIH nude mice; details: mice administered SPARC as single agent (FIG. 6D)
Procedure: Animal Studies: Tumors harvested from xenografts from animals (NIH nude mice, 6 weeks old, Taconic Laboratories) were used for histology, RT-PCR or immunoblot. 2×10^6 MIP101 cells were injected into the left flank.
Experimental groups (2 animals/group) for this study included treatment with: SPARC, SPARC+5-FU, 5-FU only, and saline. In addition, tumor xenografts of MIP/ZEO and MIP/SP cells from nude mice treated with either 5-FU (three consecutive days) or saline, were collected after the 1st cycle of treatment and homogenized (Kinematica, POLYTRON-Aggregate). Lysates were then prepared for immunoblot or RT-PCR. All animals received care according to standard animal care protocol and guidelines. […] Similarly, cells seeded on coverslips at 150,000 cells/well in a E-well plate, treated 24 hours later with 1000 μM 5-FU for 2 hours were then fixed in 2% paraformaldehyde and processed for immunofluorescence staining as previously described. In both cases, α-caspase 8 (1:50, paraffin-embedded tissues; 1:100, cells on coverslips) antibody was used and incubated overnight at 4° C., and counterstained with DAPI. Zeiss Axioplan 2 Fluorescence microscope was used for image capture.

[15] = target: T2, interaction between Bcl-2 and Procaspase 8 (Homo sapiens, UniProt Q14790); assay: co-immunoprecipitation of Bcl-2 and Procaspase 8 with exogenous SPARC; format: binding; details: addition of exogenous SPARC, 10 μg/ml for 72-hrs; resistant cell lines (FIG. 9C)
T2 construct: lysates were separated into nuclear, cytosolic, and membrane fractions; endogenous in cells; host or cells: MIP/5FU (MIP101 resistant to 5-FU) and MiaPaca/CPT cells
T2 sequence (Q14790 whole entry): as the sequence (Q14790 whole entry, the tested form may be a part) above
Procedure: Cells were grown until ˜80% confluence, and lysates were separated into nuclear, cytosolic, and membrane fractions. 250 μg of individual cellular fractions were incubated with antibodies against HIS (1:100, Sigma), capsase 8 (N-terminus) (1:100, Abcam), Bcl-2 (1:100, Cell Signaling Technologies) or a non-specific anti-mouse IgG antibody as control (Cell Signaling Technologies), in PBS overnight (4° C.). Protein:Antibody mixture was then incubated with […] of Protein A:Protein G (Sigma) (1:1) beads for 4 hours (4° C.). For all complexes, beads were washed with PBS, and eluted with 2×SDS-loading buffer, and used for immunoblotting against caspase 8, HIS, or Bcl-2.
In order to determine the region of interaction between Bcl-2 and Procaspase 8, cells were also incubated with antibodies against caspase 8 targeting its C-terminus (Cell Signaling) or N-terminus (Abeam) in vitro for 24 hours at 1.5-3.0 μg prior to collecting and fractionating the cell lysates for immunoprecipitation. In addition, to assess if exogenous SPARC interferes with the interaction of procaspase 8 and Bcl-2, cells were incubated with 10 μg/ml of SPARC for 72-hrs, in the presence or absence of antibodies against SPARC (3 μg, Hematologic Technologies) for 24 hrs, prior to collection for cellular fractionation and immunoprecipitation.

[16] = Homo sapiens, 1000 μM 5-FU for 24 hours only, read-out: decrease in cell viability

CC(=O)O[C@H]1C(=O)[C@@]2(C)[C@H]([C@H](OC(=O)c3ccccc3)[C@]3(O)C[C@H](OC(=O)[C@H](O)[C@@H](NC(=O)c4ccccc4)c4ccccc4)C(C)=C1C3(C)C)[C@]1(OC(C)=O)CO[C@@H]1C[C@@H]2O [TAX, Taxol]
IC50 [1]: 0.012 µg/mL (≈ 0.0141 µM)

SEQ ID NO: 20: truncated SPARC polypeptide comprising a sequence near the SPARC amino terminus (APQQEALPDETEVVEETVAEVTEVSVGANPVQVEVGEFDDGAEETEEEVVA; SPARC Polypeptide Expressed in MIP/NT cells)
interaction with Procaspase 8 (co-immunoprecipitation) (Procaspase 8): involves a SPARC domain which is within the amino acid sequence of SEQ ID NO: 20

z-LEHD-fmk•TFA
effect of Caspase 9-like inhibitor on 5-FU-induced decrease in cell viability (MIP/SP cells [2]; inhibitor then 5-FU): preventing a significant decrease in cell viability
effect of Caspase 9-like inhibitor on 5-FU-induced decrease in cell viability (MIP/ZEO cells [3]; inhibitor then 5-FU): preventing a significant decrease in cell viability

z-IETD-fmk
effect of Caspase 8-like inhibitor on 5-FU-induced decrease in cell viability (MIP/SP cells [2]; pre-incubation with inhibitor (as low as 10 μM), then 1000 μM 5-FU): prevented a significant decrease in cell viability
effect of Caspase 8-like inhibitor on 5-FU-induced decrease in cell viability (MIP/ZEO cells [3]; inhibitor 50 μM, then 5-FU): no such effect could be demonstrated

O=c1[nH]cc(F)c(=O)[nH]1 [5-FU, 5-fluorouracil]
cytotoxicity at 1000 µM (MIP/SP cells [2]; [16]): 16.8 ± 4.5%
Caspase 3/7 activity ([4]; MIP/ZEO cells, 12 hours after incubation with 5-FU): 9954.0±1104.8 RLU
Caspase 3/7 activity ([4]; MIP/ZEO, 5-FU, scramble control): 1915.0±661.3 RLU
Caspase 3/7 activity ([4]; MIP/ZEO, 5-FU, transfected with Caspase 8 siRNA): 2321.3±661.3 RLU
cell viability (MIP/ZEO cells [5]; following 5-FU treatment (FIG. 3B)): 75.5±0.5%
viability at 1200 µM (MIP/ZEO cells [5]; Homo sapiens, 5-FU 1200 μM (FIG. 3A)): 52.1 ± 1.7%
apoptotic cells (TUNEL) (MIP/ZEO cells [6]; no transfection with Caspase 8 siRNA): 12.2±0.7%
apoptotic cells (TUNEL) (MIP/ZEO cells [6]; transfection with Caspase 8 siRNA): 12.5±2.4%
Caspase 3/7 activity ([7]; MIP/SP cells, 12 hours after incubation with 5-FU): 16397.0±2787.6 RLU
Caspase 3/7 activity ([7]; MIP/SP transfected with Caspase 8 siRNA, 5-FU treated): 291.0±34.7 RLU
Caspase 3/7 activity ([7]; control MIP/SP cells, 5-FU treated): 5501.0±800.0 RLU
decrease in cell viability (MIP/ZEO cells [3]; 5-FU-treated after pre-incubation with Caspase 8-like inhibitor): 14.0±4.6%
cytotoxicity at 1000 µM (MIP/ZEO cells [3]; [16]): 21 ± 5.9%
Caspase 8 protein activity in tumors [8]: highest
Caspase 3 activation [9]: No Caspase 3 activation was observed
effect of 5-FU on cell viability (MIP/5FU cells [10]): remained unaffected
apoptotic cells (TUNEL) (MIP/SP cells [11]; MIP/SP exposed to 5-FU, no Caspase 8 inhibition): 20.7±6.9%
apoptotic cells (TUNEL) (MIP/SP cells [11]; MIP/SP, 5-FU following Caspase 8 gene knock-down): 0.5±0.5%
viable cells (HCT116 cells): 88.2±2.3%
cell viability (viable cells) (MIP/SP cells [12]): 97.6±1.4%
apoptosis response (TUNEL) (MIP/5FU cells [13]): did not respond to 5-FU treatment significantly

B1: SPARC: Secreted Protein, Acidic, Rich in Cysteines, a 281 amino acid glycoprotein (protein)
chain: APQQEALPDETEVVEETVAEVTEVSVGANPVQVEVGEFDDGAEETEEEVVAENPCQNHHCKHGKVCELDENNTPMCVCQDPTSCPAPIGEFEKVCSNDNKTFDSSCHFFATKCTLEGTKKGHKLHLDYIGPCKYIPPCLDSELTEFPLRMRDWLKNVLVTLYERDEDNNLLTEKQKLRVKKIHENEKRLEAGDHPVELLARDFEKNYNMYIFPVHWQFGQLDQHPIDGYLSHTELAPLRAPLIPMEHCTTRFFETCDLDNDKYIALDEWAGCFGIKQKDIDKDLVI
modifications: left off: small tags and cut ends
notes: Secreted Protein, Acidic, Rich in Cysteines, a 281 amino acid glycoprotein
Caspase 8 expression in tumor xenografts [14]: higher levels of Caspase 8
blocking of interaction between Bcl-2 and Procaspase 8 [15]: can be blocked
